From publication PMC4993649 (ChemMedChem, 2016)
Where two headings read alike, the source gives them in different places.

How the values were obtained:
[1] = target: T1, purified full-length human ERβ (Homo sapiens, UniProt Q92731); settings: for β/α ratio (of RBA values): ERβ RBA / ERα RBA
[2] = test system: HCT colon cancer cells; test: Cell viability assay, HCT; settings: 96 h, read-out: Effects on cell growth IC50, HCT
[3] = target: T1, purified full-length human ERβ; test: biochemical
[4] = test system: MDA-MB-231 breast cancer cells; test: Cell viability assay, MDA-MB-231; settings: Homo sapiens, MDA-MB-231, 96 h, read-out: Effects on cell growth IC50, MDA231
[5] = test system: U87 glioma cells; test: Cell viability assay, U87; settings: 96 h, read-out: Effects on cell growth IC50, U87
[6] = target: ERβ LBD/C369-biotin with SRC3 NRID-fluorescein (Homo sapiens, UniProt Q92731); test: tr-FRET SRC3 titration into ERβ-ligand complex; settings: E2 = 100
Chain of ERβ LBD/C369-biotin with SRC3 NRID-fluorescein (Q9Y6Q9 627-829): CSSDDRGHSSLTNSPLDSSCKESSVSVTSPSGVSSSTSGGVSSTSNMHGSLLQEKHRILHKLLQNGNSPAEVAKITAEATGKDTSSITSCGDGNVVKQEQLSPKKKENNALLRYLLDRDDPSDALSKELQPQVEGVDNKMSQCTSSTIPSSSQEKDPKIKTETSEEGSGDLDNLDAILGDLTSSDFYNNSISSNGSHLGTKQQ
Chain of ERβ LBD/C369-biotin with SRC3 NRID-fluorescein (Q92731 256-503): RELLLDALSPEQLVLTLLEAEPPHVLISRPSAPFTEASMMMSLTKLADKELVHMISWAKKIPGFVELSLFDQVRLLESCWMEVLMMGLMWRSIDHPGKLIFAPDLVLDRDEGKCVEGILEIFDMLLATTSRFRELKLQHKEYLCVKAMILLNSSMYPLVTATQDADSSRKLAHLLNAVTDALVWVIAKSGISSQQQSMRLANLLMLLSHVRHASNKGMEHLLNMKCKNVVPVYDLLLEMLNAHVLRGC

[7] = test system: MCF7 breast cancer cells; test: Cell viability assay, MCF7; settings: Homo sapiens, MCF7, 96 h, read-out: Effects on cell growth IC50, MCF7
[8] = target: ERβ/C369-biotin-SaTb with SRC3 NRID-fluorescein (Homo sapiens, UniProt Q92731); test: tr-FRET ligand titration into ERβ and SRC3; format: biochemical; settings: read-out: Ligand coactivator recruitment potency (Ligand titration) EC50; ligand titrated into 1 nM ERβ LBD, 0.25 nM SaTb, 100 nM SRC3-fluorescein; mean ± SD
Chain of ERβ/C369-biotin-SaTb with SRC3 NRID-fluorescein (Q9Y6Q9 627-829): as the sequence (Q9Y6Q9 627-829) above
Chain of ERβ/C369-biotin-SaTb with SRC3 NRID-fluorescein (Q92731 256-503): as the sequence (Q92731 256-503) above

[9] = test system: SkBr3 breast cancer cells; test: Cell viability assay, SkBr3; settings: Homo sapiens, SK-BR-3, 96 h, read-out: Effects on cell growth IC50, SkBr3
[10] = test system: LoVo colon cancer cells; test: Cell viability assay, LoVo; settings: 96 h, read-out: Effects on cell growth IC50, LoVo

T1 sequence (Q92731 whole entry): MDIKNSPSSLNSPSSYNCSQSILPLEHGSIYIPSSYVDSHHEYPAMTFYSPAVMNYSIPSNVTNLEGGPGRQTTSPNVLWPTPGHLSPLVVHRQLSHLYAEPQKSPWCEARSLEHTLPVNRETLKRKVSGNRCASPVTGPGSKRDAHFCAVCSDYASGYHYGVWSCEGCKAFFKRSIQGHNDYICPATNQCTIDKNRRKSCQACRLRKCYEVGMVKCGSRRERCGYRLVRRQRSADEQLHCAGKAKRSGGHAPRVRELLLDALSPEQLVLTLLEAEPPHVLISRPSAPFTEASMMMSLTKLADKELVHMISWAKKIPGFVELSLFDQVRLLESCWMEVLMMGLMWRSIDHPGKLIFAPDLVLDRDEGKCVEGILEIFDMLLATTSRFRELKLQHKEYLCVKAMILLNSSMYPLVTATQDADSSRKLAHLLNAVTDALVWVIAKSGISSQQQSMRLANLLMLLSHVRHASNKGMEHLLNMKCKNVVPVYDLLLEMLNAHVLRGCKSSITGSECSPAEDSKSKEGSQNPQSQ

| Compound | β/α ratio (of RBA values) [1] | Ki [3] | Efficacy % (completeness of the curves relative to E2) [6] | EC50 [8] | also measured |
| --- | --- | --- | --- | --- | --- |
| O/N=C1\CCc2c(-c3ccc(O)cc3)ccc(O)c21 [1a, (E)-7-hydroxy-4-(4-hydroxyphenyl)-2,3-dihydro-1H-inden-1-one oxime] | 16 | 0.0117 µM | 93% | 0.0142 ± 0.003 µM | IC50 ([2]; Homo sapiens): 61.5 ± 8.8 µM; IC50 [4]: 42.3 ± 1.1 µM; IC50 ([5]; Homo sapiens, U-87 MG): 150.7 ± 1.2 µM; IC50 [7]: 70.1 ± 12.4 µM; IC50 [9]: 140 ± 11.2 µM; IC50 ([10]; Homo sapiens, LoVo): 19.8 ± 2.1 µM |
| COc1ccc(-c2ccc(O)c3c2CC/C3=N\O)cc1 [1b, (E)-7-hydroxy-4-(4-methoxyphenyl)-2,3-dihydro-1H-inden-1-one oxime] | 3.0 |  |  |  |  |
| O/N=C1\CCc2c(-c3ccc(O)c(F)c3)ccc(O)c21 [1c, (E)-4-(3-fluoro-4-hydroxyphenyl)-7-hydroxy-2,3-dihydro-1H-inden-1-one oxime] | 33 | 0.0106 µM | 88% | 0.0195 ± 0.0026 µM | IC50 ([2]; Homo sapiens): 10.8 ± 1.2 µM; IC50 [4]: 8.1 ± 1.3 µM; IC50 ([5]; Homo sapiens, U-87 MG): 32.3 ± 1.1 µM; IC50 [7]: 23.2 ± 1.4 µM; IC50 [9]: 130 ± 9.7 µM; IC50 ([10]; Homo sapiens, LoVo): 14.5 ± 3.1 µM |
| COc1ccc(-c2ccc(O)c3c2CC/C3=N\O)cc1F [1d, (E)-4-(3-fluoro-4-methoxyphenyl)-7-hydroxy-2,3-dihydro-1H-inden-1-one oxime] | 0.8 |  |  |  |  |
| Cc1cc(-c2ccc(O)c3c2CC/C3=N\O)ccc1O [1e, (E)-7-hydroxy-4-(4-hydroxy-3-methylphenyl)-2,3-dihydro-1H-inden-1-one oxime] | 6.3 |  |  |  |  |
| COc1ccc(-c2ccc(O)c3c2CC/C3=N\O)cc1C [1f, (E)-7-hydroxy-4-(4-methoxy-3-methylphenyl)-2,3-dihydro-1H-inden-1-one oxime] | 1.0 |  |  |  |  |
| O/N=C1\CCc2c(-c3ccc(O)c(Cl)c3)ccc(O)c21 [1g, (E)-4-(3-chloro-4-hydroxyphenyl)-7-hydroxy-2,3-dihydro-1H-inden-1-one oxime] | 8.0 |  |  |  |  |
| COc1ccc(-c2ccc(O)c3c2CC/C3=N\O)cc1Cl [1h, (E)-4-(3-chloro-4-methoxyphenyl)-7-hydroxy-2,3-dihydro-1H-inden-1-one oxime] | 0.50 |  |  |  |  |
| O/N=C1\CCc2c(-c3ccccc3)ccc(O)c21 [1i, (E)-7-hydroxy-4-phenyl-2,3-dihydro-1H-inden-1-one oxime] | 89 | 0.282 µM | 72% | 0.393 ± 0.124 µM | decrease of ERβ affinity compared to 1a ([1]; from RBA values): 24 fold |
| O=C1C[C@@H](c2ccc(O)cc2)Oc2cc(O)ccc21 [Liquiritigenin, reference compound] |  |  |  |  | IC50 ([2]; human colon cancer, mean ± SD): 75.3 ± 7.1 µM; IC50 ([5]; human glioma, mean ± SD): 115 ± 11.7 µM; IC50 ([10]; human colon cancer, mean ± SD): 101 ± 10.2 µM |
